Data as given in patent publication USRE42890E1, “Furazanobenzimidazoles” (Basilea Pharmaceutica AG, priority 2003, dated 2011).

What was measured:
Jurkat [1] = assay: MTS proliferation assay, Jurkat; format: cell-based, human; conditions: 72 h incubation, read-out: MTS proliferation assay IC 50 Jurkat
Procedure, shortened: (§1)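 Absorbance at 492 nm after 3 h with MTS reagent gave the proliferation read-out. Before that, cells in RPMI-1640 complete medium (5% or 10% FCS) were treated 72 h with compound at four final concentrations, 0.3 to 10 μM.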

HeLa [2] = assay: MTS proliferation assay, HeLa; format: cell-based, human; conditions: 72 h incubation, read-out: MTS proliferation assay IC 50 HeLa
Procedure, shortened: as §1

MRC5 = assay: MTS proliferation assay, MRC5; format: cell-based; conditions: MRC5, 72 h incubation; read-out: MTS proliferation assay IC 50 MRC5
Procedure, shortened: (§2)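 Read-out: MTS absorbance at 492 nm after 3 h reagent incubation. Before that, cells grew 72 h at 37° C/7.5% CO2 with test compounds at final concentrations of 10 μM, 3 μM, 1 μM and 0.3 μM, added 24 h post-seeding.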

Jurkat [3] = assay: PI staining for cell cycle distribution, Jurkat; format: cell-based, human; parameters: key: 0: no effect; 1: weak effect; 2: strong effect; conditions: Jurkat 3 μM, 24 h; for PI staining for cell cycle distribution, G2M: cell population arrested in G2M phase; for PI staining for cell cycle distribution, subG1: subG1 peak indicative for DNA fragmentation
Experimental: (§3) Cell lines are cultured in RPMI-1640 tissue culture medium containing either 5% or 10% fetal calf serum, 0.05 mM 2-mercaptoethanol, 2 mM glutamine and penicillin/streptomycin 50 μg/ml (complete medium) (Sigma, Buchs, Switzerland). General growth conditions are 37° C. and 7.5% CO2.
(§4) The following human cell lines (either EGFP transfected or not) are being used: HeLa (ATCC: CCL-2), KB (ATCC: CCL-17), MCF7 (ATCC: HTB-22), SK-BR-3 (ATCC: HTB-30), SK-Mel 1 (ATCC: HTB-67), SK-Mel 28 (ATCC: HTB-72), PC-3 (ATCC: CRL-1435), SW 480 (ATCC: CCL-228), NCl-H460 (ATCC: HTB-177), NCl-H1792 (ATCC: CRL-5895), HT1080 (ATCC: CCL-21), Jurkat (ATCC: TIB-152), Ramos (ATCC: CRL-1596), Raji (ATCC: CCL-86), H9 (ATCC: HTB-176), Hut78 (ATCC: TIB-161), K562 (ATCC: CCL 243), HL-60 (ATCC: CCL 240), U-87MG (ATCC: HTB-14), HepG2 (ATCC: HB-8065), U-2 OS (ATCC: HTB-96), Saos-2 (ATCC: HTB-85), U937 (ATCC: CRL 1593), Hs 578T (ATCC: HTB 126), HBL-100 (ATCC: HTB 124), Molt-4 (ATCC: CRL 1582).
(§5) 1-2*10^5 cells are seeded into 24 well tissue culture plates and incubated for 24 h prior to compound addition. Compounds are added for 24 h in a final concentration of 3 μM or 10 μM. Adherent cells are harvested by trypsinization. The cell suspensions are fixed by adding 2 parts ice cold ethanol 100% while vortexing. Then the samples are stored for >2 h at −20° C. Subsequently the cells are washed with PBS once and resuspended in 250 μl PBS containing 50 μg/ml PI (Calbiochem # 537059), then the samples are incubated at 37° C. for 30 minutes and subsequently analyzed on a FACSCalibur™ monitoring linear PI fluorescence activity on FL2. The readout allows the detection of a possible direct or indirect influence of the tested compounds on the cell cycle. The following events can occur: a) Generation of a subG1 peak indicative for DNA fragmentation, b) increase of the cell population arrested in G2M phase. Both events are scored by 1 for weak and 2 for strong occurrence. 0 indicates no occurrence at all.

HeLa [4] = assay: PI staining for cell cycle distribution, HeLa; format: cell-based, human; parameters: key: 0: no effect; 1: weak effect; 2: strong effect; conditions: HeLa 10 μM, 24 h; for PI staining for cell cycle distribution, G2M: cell population arrested in G2M phase; for PI staining for cell cycle distribution, subG1: subG1 peak indicative for DNA fragmentation
Experimental: as §3, §4, §5

[5] = test system: adherent cells or suspension cells; assay: Hoechst 33342 nuclear staining (fraction of apoptotic nuclei); format: cell-based; parameters: key: 0 relating to no activity; 1 relating to weak activity comprising less than 70% of the cells; score 2 relating to strong activity comprising more than 70% of the cells
Jily = assay: MTS proliferation assay, Jily; format: cell-based; conditions: 72 h incubation, read-out: MTS proliferation assay IC 50 Jily
Procedure, shortened: as §2

HT1080 = assay: MTS proliferation assay, HT1080; format: cell-based, human; conditions: HT1080, 72 h incubation; read-out: MTS proliferation assay IC 50 HT1080
Procedure, shortened: as §1

Row | Compound | IC50 (Jurkat [1]) [nM] | IC50 (HeLa [2]) [nM] | IC50 (MRC5) [nM] | PI staining for cell cycle distribution, G2M (Jurkat [3]) | PI staining for cell cycle distribution, subG1 (Jurkat [3]) | PI staining for cell cycle distribution, G2M (HeLa [4]) | PI staining for cell cycle distribution, subG1 (HeLa [4]) | Hoechst 33342 nuclear staining score ([5]; H460, conc 0.01 μm) | Hoechst 33342 nuclear staining score ([5]; H460, conc 0.1 μm) | Hoechst 33342 nuclear staining score ([5]; H460, conc 1 μm) | Hoechst 33342 nuclear staining score ([5]; HeLa, conc 0.01 μm) | Hoechst 33342 nuclear staining score ([5]; HeLa, conc 0.1 μm) | Hoechst 33342 nuclear staining score ([5]; HeLa, conc 1 μm) | Hoechst 33342 nuclear staining score ([5]; Jily, conc 0.01 μm) | Hoechst 33342 nuclear staining score ([5]; Jily, conc 0.1 μm) | Hoechst 33342 nuclear staining score ([5]; Jily, conc 1 μm) | Hoechst 33342 nuclear staining score ([5]; Jurkat, conc 0.01 μm) | Hoechst 33342 nuclear staining score ([5]; Jurkat, conc 0.1 μm) | Hoechst 33342 nuclear staining score ([5]; Jurkat, conc 1 μm) | Hoechst 33342 nuclear staining score ([5]; MRC5, conc 0.01 μm) | further results
1 | CON=C(Cn1c(-c2nonc2N)nc2ccccc21)c1ccc(Br)cc1 (mixture of isomers) [Example 30] | 100 to 1000 | 100 to 1000 | 100 to 1000 | 0 | 0 | 2 | 0 | 0 | 0 | 0 | 0 | 0 | 1 (1 relating to weak activity comprising less than 70% of the cells) | 0 | 0 | 1 (1 relating to weak activity comprising less than 70% of the cells) | 0 | 0 | 2 (score 2 relating to strong activity comprising more than 70% of the cells) | 0 | Hoechst 33342 nuclear staining score ([5]; MRC5, conc 0.1 μm): 0; Hoechst 33342 nuclear staining score ([5]; MRC5, conc 1 μm): 2 (score 2 relating to strong activity comprising more than 70% of the cells); Hoechst 33342 nuclear staining score ([5]; PBLs, conc 0.01 μm): 0; Hoechst 33342 nuclear staining score ([5]; PBLs, conc 0.1 μm): 0; Hoechst 33342 nuclear staining score ([5]; PBLs, conc 1 μm): 0
2 | N#CCCNc1nonc1-c1nc2ccccc2n1CC(=O)c1ccc(N)cc1 [Example 58] | < 10 | 10 to 100 | < 10 | 0 | 0 | 2 | 0 | 2 (score 2 relating to strong activity comprising more than 70% of the cells) | 2 (score 2 relating to strong activity comprising more than 70% of the cells) | 2 (score 2 relating to strong activity comprising more than 70% of the cells) | 2 (score 2 relating to strong activity comprising more than 70% of the cells) | 2 (score 2 relating to strong activity comprising more than 70% of the cells) | 2 (score 2 relating to strong activity comprising more than 70% of the cells) | 2 (score 2 relating to strong activity comprising more than 70% of the cells) | 2 (score 2 relating to strong activity comprising more than 70% of the cells) | 2 (score 2 relating to strong activity comprising more than 70% of the cells) | 2 (score 2 relating to strong activity comprising more than 70% of the cells) | 2 (score 2 relating to strong activity comprising more than 70% of the cells) | 2 (score 2 relating to strong activity comprising more than 70% of the cells) | 1 (1 relating to weak activity comprising less than 70% of the cells) | IC50 (Jily): < 10 nM; IC50 (HT1080): < 10 nM; Hoechst 33342 nuclear staining score ([5]; MRC5, conc 0.1 μm): 2 (score 2 relating to strong activity comprising more than 70% of the cells); Hoechst 33342 nuclear staining score ([5]; MRC5, conc 1 μm): 2 (score 2 relating to strong activity comprising more than 70% of the cells); Hoechst 33342 nuclear staining score ([5]; PBLs, conc 0.01 μm): 0; Hoechst 33342 nuclear staining score ([5]; PBLs, conc 0.1 μm): 0; Hoechst 33342 nuclear staining score ([5]; PBLs, conc 1 μm): 0
3 | COc1ccc(C(=O)Cn2c(-c3nonc3N)nc3ccccc32)cc1 [Example 19] | 10 to 100 | 100 to 1000 | 100 to 1000 | 0 | 0 | 2 | 0 | 0 | 0 | 2 (score 2 relating to strong activity comprising more than 70% of the cells) | 0 | 1 (1 relating to weak activity comprising less than 70% of the cells) | 2 (score 2 relating to strong activity comprising more than 70% of the cells) | 0 | 2 (score 2 relating to strong activity comprising more than 70% of the cells) | 2 (score 2 relating to strong activity comprising more than 70% of the cells) | 0 | 2 (score 2 relating to strong activity comprising more than 70% of the cells) | 2 (score 2 relating to strong activity comprising more than 70% of the cells) | 0 | Hoechst 33342 nuclear staining score ([5]; MRC5, conc 0.1 μm): 0; Hoechst 33342 nuclear staining score ([5]; MRC5, conc 1 μm): 2 (score 2 relating to strong activity comprising more than 70% of the cells); Hoechst 33342 nuclear staining score ([5]; PBLs, conc 0.01 μm): 0; Hoechst 33342 nuclear staining score ([5]; PBLs, conc 0.1 μm): 0; Hoechst 33342 nuclear staining score ([5]; PBLs, conc 1 μm): 0
4 | Nc1nonc1-c1nc2ccccc2n1CC(=O)c1ccc(Br)cc1 [Example 29] | 10 to 100 | 10 to 100 | 10 to 100 | 0 | 0 | 2 | 0 | 0 | 0 | 2 (score 2 relating to strong activity comprising more than 70% of the cells) | 0 | 1 (1 relating to weak activity comprising less than 70% of the cells) | 2 (score 2 relating to strong activity comprising more than 70% of the cells) | 0 | 2 (score 2 relating to strong activity comprising more than 70% of the cells) | 2 (score 2 relating to strong activity comprising more than 70% of the cells) | 0 | 2 (score 2 relating to strong activity comprising more than 70% of the cells) | 2 (score 2 relating to strong activity comprising more than 70% of the cells) | 0 | Hoechst 33342 nuclear staining score ([5]; MRC5, conc 0.1 μm): 2 (score 2 relating to strong activity comprising more than 70% of the cells); Hoechst 33342 nuclear staining score ([5]; MRC5, conc 1 μm): 2 (score 2 relating to strong activity comprising more than 70% of the cells); Hoechst 33342 nuclear staining score ([5]; PBLs, conc 0.01 μm): 0; Hoechst 33342 nuclear staining score ([5]; PBLs, conc 0.1 μm): 0; Hoechst 33342 nuclear staining score ([5]; PBLs, conc 1 μm): 0
